In US20090036388A1, “Compounds” (priority 2007, published 2009):
≈ marks a conversion by molar mass, not a printed value.

Columns and labels:
[1] = test system: Plasmodium yoelii nigeriensis; conditions: cited from earlier work
Plasmodium berghei = conditions: cited from earlier work
Plasmodium cynomolgi = conditions: rhesus monkey; cited from earlier work
Plasmodium falciparum = conditions: non-immune patients, as compared to controls; cited from earlier work
[2] = test system: Plasmodium falciparum strain 3D7A; experiment: [3H] hypoxanthine incorporation IC50 assay, P. falciparum 3D7A; format: cell-based; conditions: 48 hours incubation; for IC50: Plasmodium falciparum
Experimental: (§1) Plasmodium falciparum strains 3D7A and W2.
(§2) The culture medium comprised RPMI 1640 with 25 mM HEPES, sodium bicarbonate and glutamine (GIBCO™ cat. ref.: 52400), supplemented with 10% of pooled human sera AB (Bioreclamation HMSRM-AB)) and HT supplement (0.15 mM hypoxanthine and 24 μM thymidine), (GIBCO™ cat. ref.: 41065). Human sera were decomplemented 30 min. at 56° C., aliquoted and stored frozen at −20° C. until use in this culture medium.
(§3) Red blood cells AB—stock suspensions were prepared from whole blood bags coming from incomplete blood donation, provided by the Spanish Red Cross (<25 days after sampling). This “whole blood” was aliquoted and stored at 4° C.
(§4) To prepare red blood cells for the assay, the whole blood was centrifuged and washed 3 times with RPMI without serum. The upper phase, containing white blood cells was removed. The washed red blood cells were kept as a 50% suspension in complete medium. The prepared cells were stored at 4° C. and were employed in the assay at any time up to 4 days after preparation.
(§5) Test compounds were dissolved at 2 mg/ml in 100% DMSO on the day of the assay. If necessary, complete dissolution was achieved by gentle heating (the mixture was heated at a temperature <37° C.) and sonication (sonication bath).
(§6) For IC50 determinations, 10 serial 2-fold dilutions were prepared in complete medium in the presence of a constant amount of DMSO. Any obvious signs of insolubility of the stock solutions in 100% DMSO or precipitation when these solutions were diluted in assay media, were recorded.
(§7) Plasmodium falciparum strains were maintained in complete medium at an hematocrit of 5% in continuous culture using a method adapted from Trager and Jensen (1, 2).
(§8) The parasitemia was calculated by counting the percentage of parasitized erythrocytes by optical microscopy. Thin films of blood were made every day from each culture flask, fixed with methanol and stained for 10 min. in Giemsa (Merck, cat. ref.: 1.09204) at 10% in buffered water pH 7.2. The glass slides were observed and counted with an optical microscope (Nikon, Eclipse E200) equipped with a 100× immersion oil objective.
(§9) The culture was maintained at an hematocrit of 5%, with a daily change of medium and was diluted when parasitemia had reached about 5%.
(§10) [^3H] Hypoxanthine incorporation assay was conducted using a method adapted from Desjardins et al. (3). The assays were performed in 96 wells flat bottom microplates.
(§11) 1. Serial dilutions of the test compounds (50 μl of a 5× solution/well) were deposited in duplicate. Compounds of this invention (Table 1) were tested in this assay. Chloroquine and Azithromycin were used as control compounds for each assay.
(§12) 3. [^3H]-Hypoxanthine (Amersham Biosciences, cat. ref.: TRK74) was added extemporaneously to the inoculum suspension at a concentration of 1 μCi/ml (equating to […]). 200 μl of the resulting suspension was distributed into each well (other than the control well H12 described below) leading to a final volume of 250 μl per well, at 1% of hematocrit and 0.4% of parasitemia/well.
(§13) 4. In each plate, 2 columns were reserved for control wells: • Column 11: Positive control wells: PRBCs with 0.2% DMSO—(i) to determine DMSO solvent effect on parasite growth (at a final concentration of 0.2%) and (ii) to compare with cultures treated with test compounds. • Column 12 (comprising wells A12-H12): • A12-D12—Background value wells: Uninfected RBCs—blank control to obtain the background reading from RBCs without parasites.
(§14) E12-G12—Solvent effect wells: PRBCs without DMSO—to determine DMSO solvent effect on PRBCs by comparing these wells with column 11 wells.
(§15) H12—Non-radioactive well: PRBCs with cold hypoxanthine—(i) to carry out a thin blood film to determine parasitemia value after incubation by microscopy and (ii) to ensure that the parasites have grown properly during the assay. […]

Plasmodium vivax = conditions: non-immune patients, as compared to controls; cited from earlier work
[3] = test system: Plasmodium falciparum strain W2; experiment: [3H] hypoxanthine incorporation IC50 assay, P. falciparum W2; format: cell-based; conditions: P. falciparum W2, 48 hours incubation
Experimental: as §1, §2, §3, §4, §5, §6, §7, §8, §9, §10, §11, §12, §13, §14, §15

Row | Compound | IC50 [3] | IC50 [2] | other results
1 | midecamycinin | – | – | activity in mouse model [1]: active; activity in mouse model (Plasmodium berghei): active; efficacy in monkey model (Plasmodium cynomolgi): no efficacy
2 | CC[C@H]1OC(=O)[C@H](C)[C@@H](O[C@H]2C[C@@](C)(OC)[C@@H](O)[C@H](C)O2)[C@H](C)[C@@H](O[C@@H]2O[C@H](C)C[C@H](N(C)C)[C@H]2O)[C@](C)(O)C[C@@H](C)CN(C)[C@H](C)[C@@H](O)[C@]1(C)O [azithromycin] | 2.5 to 3 mg/L (≈ 3.34 to 4.01 µM) | – | prophylactic efficacy for Plasmodium falciparum (Plasmodium falciparum): 71.6%; IC50 3D7A [2]: H, >H; prophylactic efficacy for Plasmodium vivax (Plasmodium vivax): 98.9%; efficacy in monkey model (Plasmodium cynomolgi): active
3 | CC[C@H]1OC(=O)[C@H](C)[C@@H](O[C@H]2C[C@@](C)(OC)[C@@H](O)[C@H](C)O2)[C@H](C)[C@@H](O[C@@H]2O[C@H](C)C[C@H](N(C)C)[C@H]2OCCCNC(=O)CNc2ccnc3cc(Cl)ccc23)[C@](C)(O)C[C@@H](C)CN(C)[C@H](C)[C@@H](O)[C@]1(C)O [Example 7, 2′-O-[3-({2-[(7-chloro-4-quinolinyl)amino]ethanoyl}amino)propyl]-9-deoxo-9a-methyl-9a-aza-9a-homoerythromycin A] | ≤ 0.1 mg/L | ≤ 0.1 mg/L | –
4 | CC[C@H]1OC(=O)[C@H](C)[C@@H](O)[C@H](C)[C@@H](O[C@@H]2O[C@H](C)C[C@H](N(C)C)[C@H]2OCCCNC(=O)CNc2ccnc3cc(Cl)ccc23)[C@](C)(O)C[C@@H](C)CN(C)[C@H](C)[C@@H](O)[C@]1(C)O [Example 8, 2′-O-[3-({2-[(7-chloro-4-quinolinyl)amino]ethanoyl}amino)propyl]-3-O-decladinosyl-9-deoxo-9a-methyl-9a-aza-9a-homoerythromycin A] | 0.1 to 0.2 mg/L (≈ 0.115 to 0.231 µM) | ≤ 0.1 mg/L | –
5 | CC[C@H]1OC(=O)[C@H](C)[C@@H](O)[C@H](C)[C@@H](O[C@@H]2O[C@H](C)C[C@H](N(C)C)[C@H]2OCCCNc2ccnc3cc(Cl)ccc23)[C@](C)(O)C[C@@H](C)CN(C)[C@H](C)[C@@H](O)[C@]1(C)O [Example 5, 2′-O-{3-[(7-Chloro-4-quinolinyl)amino]propyl}-3-O-decladinosyl-9-deoxo-9a-methyl-9a-aza-9a-homoerythromycin A] | ≤ 0.1 mg/L | ≤ 0.1 mg/L | –
6 | CC[C@H]1OC(=O)[C@H](C)[C@@H](O[C@H]2C[C@@](C)(OC)[C@@H](O)[C@H](C)O2)[C@H](C)[C@@H](O[C@@H]2O[C@H](C)C[C@H](N(C)C)[C@H]2OCCCNC(=O)CCCNc2ccnc3ccccc23)[C@](C)(O)C[C@@H](C)CN(C)[C@H](C)[C@@H](O)[C@]1(C)O [Example 12, 2′-O-[3-({4-[(4-quinolinyl)amino]butanoyl}amino)propyl]-9-deoxo-9a-methyl-9a-aza-9a-homoerythromycin A] | 0.1 to 0.2 mg/L (≈ 0.0982 to 0.196 µM) | 0.2 to 1 mg/L (≈ 0.196 to 0.982 µM) | –
7 | CC[C@H]1OC(=O)[C@H](C)[C@@H](O[C@H]2C[C@@](C)(OC)[C@@H](O)[C@H](C)O2)[C@H](C)[C@@H](O[C@@H]2O[C@H](C)C[C@H](N(C)C)[C@H]2OCCCNc2ccnc3ccccc23)[C@](C)(O)C[C@@H](C)CN(C)[C@H](C)[C@@H](O)[C@]1(C)O [Example 6, 2′-O-{3-[(4-quinolinyl)amino]propyl}-9-deoxo-9a-methyl-9a-aza-9a-homoerythromycin A] | ≤ 0.1 mg/L | ≤ 0.1 mg/L | –
8 | CC[C@H]1OC(=O)[C@H](C)[C@@H](O[C@H]2C[C@@](C)(OC)[C@@H](O)[C@H](C)O2)[C@H](C)[C@@H](O[C@@H]2O[C@H](C)C[C@H](N(C)C)[C@H]2OCCCNC(=O)CCCNc2ccnc3cc(Cl)ccc23)[C@](C)(O)C[C@@H](C)CN(C)[C@H](C)[C@@H](O)[C@]1(C)O [Example 1, 2′-O-[3-({4-[(7-chloro-4-quinolinyl)amino]butanoyl}amino)propyl]-9-deoxo-9a-methyl-9a-aza-9a-homoerythromycin A] | ≤ 0.1 mg/L | ≤ 0.1 mg/L | –
9 | CC[C@H]1OC(=O)[C@H](C)[C@@H](O)[C@H](C)[C@@H](O[C@@H]2O[C@H](C)C[C@H](N(C)C)[C@H]2OCCCNc2ccnc3cc(Cl)ccc23)[C@](C)(O)C[C@@H](C)CN(C)[C@H](C)[C@@H](OC(C)=O)[C@]1(C)O [Example 4, 11-O-Acetyl-2′-O-{3-[(7-Chloro-4-quinolinyl)amino]propyl}-3-O-decladinosyl-9-deoxo-9a-methyl-9a-aza-9a-homoerythromycin A] | ≤ 0.1 mg/L | ≤ 0.1 mg/L | –
10 | CC[C@H]1OC(=O)[C@H](C)[C@@H](O)[C@H](C)[C@@H](O[C@@H]2O[C@H](C)C[C@H](N(C)C)[C@H]2OCCCNC(=O)CNc2ccnc3ccccc23)[C@](C)(O)C[C@@H](C)CN(C)[C@H](C)[C@@H](O)[C@]1(C)O [Example 10, 2′-O-[3-({2-[(4-quinolinyl)amino]ethanoyl}amino)propyl]-3-O-decladinosyl-9-deoxo-9a-methyl-9a-aza-9a-homoerythromycin A] | 0.2 to 1 mg/L (≈ 0.24 to 1.2 µM) | 1 to 2.5 mg/L (≈ 1.2 to 3 µM) | –
11 | CC[C@H]1OC(=O)[C@H](C)[C@@H](O[C@H]2C[C@@](C)(OC)[C@@H](O)[C@H](C)O2)[C@H](C)[C@@H](O[C@@H]2O[C@H](C)C[C@H](N(C)C)[C@H]2OCCC(=O)NCCNc2ccnc3cc(Cl)ccc23)[C@](C)(O)C[C@@H](C)CN(C)[C@H](C)[C@@H](O)[C@]1(C)O [Example 11, 2′-O-[3-({2-[(7-chloro-4-quinolinyl)amino]ethyl}amino)-3-oxopropyl]9-deoxo-9a-methyl—9a-aza-9a-homoerythromycin A] | ≤ 0.1 mg/L | ≤ 0.1 mg/L | –
12 | CC[C@H]1OC(=O)[C@H](C)[C@@H](O[C@H]2C[C@@](C)(OC)[C@@H](O)[C@H](C)O2)[C@H](C)[C@@H](O[C@@H]2O[C@H](C)C[C@H](N(C)C)[C@H]2OCCCNC(=O)CNc2ccnc3ccccc23)[C@](C)(O)C[C@@H](C)CN(C)[C@H](C)[C@@H](O)[C@]1(C)O [Example 9, 2′-O-[3-({2-[(4-quinolinyl)amino]ethanoyl}amino)propyl]-9-deoxo-9a-methyl-9a-aza-9a-homoerythromycin A] | ≤ 0.1 mg/L | 0.1 to 0.2 mg/L (≈ 0.101 to 0.202 µM) | –
13 | CC[C@H]1OC(=O)[C@H](C)[C@@H](O[C@H]2C[C@@](C)(OC)[C@@H](O)[C@H](C)O2)[C@H](C)[C@@H](O[C@@H]2O[C@H](C)C[C@H](N(C)C)[C@H]2OCCCNc2ccnc3cc(Cl)ccc23)[C@](C)(O)C[C@@H](C)CN(C)[C@H](C)[C@@H](O)[C@]1(C)O [Example 3, 2′-O-{3-[(7-Chloro-4-quinolinyl)amino]propyl}-9-deoxo-9a-methyl-9a-aza-9a-homoerythromycin A] | ≤ 0.1 mg/L | ≤ 0.1 mg/L | –
14 | CC[C@H]1OC(=O)[C@H](C)[C@@H](O)[C@H](C)[C@@H](O[C@@H]2O[C@H](C)C[C@H](N(C)C)[C@H]2OCCCNC(=O)CCCNc2ccnc3cc(Cl)ccc23)[C@](C)(O)C[C@@H](C)CN(C)[C@H](C)[C@@H](O)[C@]1(C)O [Example 2, 2′-O-[3-({4-[(7-chloro-4-quinolinyl)amino]butanoyl}amino)propyl]-3-O-decladinosyl-9-deoxo-9a-methyl-9a-aza-9a-homoerythromycin A] | 0.1 to 0.2 mg/L (≈ 0.112 to 0.224 µM) | 0.1 to 0.2 mg/L (≈ 0.112 to 0.224 µM) | –
